# Assay results from patent US20240197729A1, “ALK-5 Inhibitors and Uses Thereof” (Sumitomo Pharma Oncology, Inc., priority 2021, published 2024).
# How the values were obtained:
# Format in all cases: cell-based
# JAK signaling = experiment: JAK selectivity assay, HEK blue IL-12 reporter; conditions: HEK-Blue, 24 h, 12.5 ng/ml IL-12, 24 h
# Procedure: The cells were purchased from Invivogen (Catalog Nr: hkb-il12) and maintained according to vendor instructions. On the day of the experiment, cells were harvested by repeated tapping of the flask to shake loose the cells attached to the bottom of the flask. Then, cells were harvested, washed and resuspended in DMEM media supplemented with 10% fetal calf serum. 30 Microliters of cell suspension was seeded into a 384-well tissue culture-coated plate containing approximately 10,000 total cells. […] Using the ECHO “Dose Response” software, the test compound was added in duplicate wells with a 3-fold dilution curve. DMSO was back-filled to normalize the DMSO across all wells. […] After 30 minutes of incubation at room temperature, the optical density was measured at 620 nanometer using the Perkin Elmer Envision plate reader. A color change can be detected at this wavelength when secreted alkaline phosphatase, which is triggered by IL-12 signaling, is present in the supernatant. […]
# [1] = tested on: SMAD signaling triggered by myostatin; experiment: Myostatin-triggered SMAD signaling in RDSR cells; conditions: Homo sapiens, 50 ng/ml myostatin, 24 h
# Procedure: To determine the ability of compounds to inhibit the SMAD signaling triggered by myostatin, and therefore possibly help alleviate cachexia in cancer patients, the following assay was performed. The RD cell line, a human rhabdomyosarcoma cell line, was purchased from ATCC (CCL-136) and a stably SMAD reporter plasmid (Promega, pGL4.48[luc2P/SBE/Hygro]) was introduced to create the RD SMAD Reporter (RDSR) cell line. Twenty thousand RDSR cells were seeded into a 96-well plate (Greiner bio-one 655083) in DMEM media supplemented with 10% fetal bovine serum. Cells were pre-incubated with selected compounds at various concentrations (8-point curve ranging from 10 micromolar to 610 picomolar) for one hour, then were stimulated with 50 nanograms per milliliter myostatin (R&D, 788-G8-010) for twenty-four hours. The luciferase signal was then read out with One-Glo substrate on the Envision plate reader.
# [2] = tested on: TGF-β1-induced SMAD signaling pathway; experiment: RD SMAD reporter (RDSR) assay; conditions: Homo sapiens; 200 pg/ml rhTGF-beta1, 24 h
# Text: TGF-beta (also referred to as TGF-β1) is a multifunctional, highly conserved cytokine with many key functions in development, cell growth and apoptosis, and plays a key role in the tissue repair response and functions as a potent immune modulator. TGF-β signaling is triggered when the activated TGF-β homodimer binds to the TGF-β receptor 2, which in turn leads to the recruitment and phosphorylation of TGF-β receptor 1 (ALK5). Activated TGF-β receptor 1 phosphorylates the signal transduction molecules SMAD2 and SMAD3. These bind to common mediator SMAD4 and translocate to the nucleus where they bind to short conserved DNA sequences called the SMAD binding element and induce the transcription of various target genes.
# A stable cellular reporter, the RD SMAD reporter (RDSR), was generated to test the ability of certain compounds disclosed herein to inhibit the canonical TGF-β1-induced SMAD signaling pathway in a cellular context. The RD SMAD reporter (RDSR) cell line was generated by stably integrating the SMAD cellular reporter plasmid (Promega, pGL4.48[luc2P/SBE/Hygro]) into the human rhabdomyosarcoma cell line RD (ATCC, CCL-136). Once SMAD signaling was triggered with, for example, the addition of TGF-beta1, receptor-activated SMADs bind the SMAD binding elements (SBEs) leading to the expression of intracellular luciferase.
# The rhabdomyosarcoma line RD (ATCC, CCL-136) was transfected with a SMAD reporter vector (Promega, E3671) and a polyclonal stable cell line was selected using hygromycin B. The transfected vector contained three copies of a Smad-binding element (SBE) that drives transcription of the luciferase reporter gene luc2P (Photinus pyralis). luc2P is a synthetically-derived luciferase sequence with humanized codon optimization that is designed for high expression and reduced anomalous transcription. The luc2P gene contains hPEST, a protein destabilization sequence, which allows luc2P protein levels to respond more quickly than those of luc2 to induction of transcription. The intracellular luciferase is quantified by the addition of equal volume (100 μl) of ONE-GLO substrate (Promega, E6120) and read within ten minutes on the Envision plate reader. The stable RDSR cell line was tested by evaluating the response to human TGF-beta1 (R&D Systems, 7754-BH-005) as well as myostatin (R&D Systems, 788-G8-010/CF) in a concentration-dependent manner after twenty-four hours of stimulation. […] For compound evaluation, the tool compounds (vactosertib and PF-06952229 (a TGFβR1 inhibitor available from MedChem Express HY-136244) were included as positive controls) or test compounds were incubated with cells for one hour at 37° C. then stimulated with 200 pg/ml rhTGF-beta1 for twenty-four hours. The activity of the reporter was determined with the addition of ONE-GLO (Promega) substrate, and luminescence counts were collected on the Envision plate reader (Perkin Elmer). The IC50 or EC50 was calculated using nonlinear regression curve fitting with graph pad prism software.
# A comparative RDSR analysis was performed using IC50 values for selected compounds and standards obtained using the RDSR assay protocol described in Example 3.
# The tool compounds vactosertib (an ALK5 inhibitor sourced from MedChem Express, HY-19928) and PF-06952229 (a TGFβR1 inhibitor) were included in the study as comparator compounds. Selected example compounds or comparator compounds were incubated with cells for one hour at 37° C. then stimulated with 200 pg/ml rhTGF-beta1 for twenty-four hours. The activity of the reporter was determined by adding ONE-GLO (Promega) substrate, and collecting luminescence counts on the Envision plate reader (Perkin Elmer).
# Each of the example compounds and comparator compounds were tested at drug concentrations of from 20 micromolar to 1 nanomolar, and the IC50 value for each was calculated using Graph Pad Prism software. DMSO was used as a negative control and all wells contained normalized DMSO concentrations. […]
smiles,measurement,setting,value
"Cc1cccc(-c2[nH]c(CNc3ccccc3F)nc2-c2ccc3ncnn3c2)n1 [Vactosertib, vactosertib, reference compound]",IC50,JAK signaling,18.5 µM
same,IC50,[1],0.0164 µM
"Clc1cccc2c(Nc3ccnc(Nc4cccc(N5CCOCC5)c4)c3)cnnc12 [Compound 04, N4-(8-chlorocinnolin-4-yl)-N2-[3-(morpholin-4-yl)phenyl]pyridine-2,4-diamine]",EC50,[2],< 0.05 µM
same,IC50,JAK signaling,3.7 µM
same,IC50,[1],0.0191 µM
"Cc1cccc2c(Nc3ccnc(Nc4ccc(N5CCOCC5)cc4)c3)cnnc12 [Compound 05, N4-(8-methylcinnolin-4-yl)-N2-[4-(morpholin-4-yl)phenyl]pyridine-2,4-diamine]",EC50,[2],< 0.05 µM
"Cc1nn(CC(F)(F)F)cc1Nc1cc(Nc2cnnc3c(C)cccc23)ccn1 [Compound 01, N2-[3-methyl-1-(2,2,2-trifluoroethyl)-1H-pyrazol-4-yl]-N4-(8-methylcinnolin-4-yl)pyridine-2,4-diamine]",EC50,[2],< 0.05 µM
same,IC50,JAK signaling,3.8 µM
same,IC50,[1],0.0571 µM
